Reference: patent US9963463B2, “Urea-substituted indanes as P38 map kinase inhibitors” (TORRENT PHARMACEUTICALS LIMITED, priority 2014, dated 2018)

How the values were obtained:
[1] = system: BALF fluid inflammatory cell influx and lung function; test: Chronic model of COPD in guinea pigs (tobacco smoke and LPS, 18 weeks); assay type: in vivo; settings: guinea pig, chronic TS/LPS COPD model, 3 mg/ml, aerosol exposure 50 minutes
Excerpt: Observation: It was observed that compound of present invention was found effective in inhibition of neutrophil influx, an index of pulmonary inflammation in guinea pig model of airway inflammation. […] (II) Efficacy Studies in Chronic Model of COPD in Guinea Pigs.
Guinea pigs were exposed to tobacco smoke (TS) and Lipopolysaccharide (LPS) in an acrylic chamber. Exposure to TS and LPS is given in following manner in a week for a total of 18 weeks.
Lung delivery of test material was achieved by whole body aerosol exposure for 50 minutes in a chamber. Guinea pig were divided in different dose groups and exposed to either vehicle or compound no 43 (3 mg/ml). A total quantity of 7.0 ml of either vehicle or compound no 43 (suspension formulation with D90<5μ, with Malvern Mastersizer®) was nebulized in chambers to respective groups over 50 mins period. Compound no 43 or vehicle was administered 2 hr prior to TS/LPS exposure once daily from week 9 to week 18. Control animals were exposed to room air instead of TS and PBS instead of LPS. Lung function and bronchoalveolar lavage (BAL) for each animal was performed 24 hr post last TS exposure. […]
(§1) Lavage fluid was separated from cells by centrifugation and supernatant separated. […] Cells in aliquot were stained using Turk solution and total cell numbers were calculated by counting Turk stained aliquot under microscope using haemocytometer.
(§2) The residual cell suspension was resuspended and slides prepared using cyto centrifuge technique (Cytospin 4, Thermo Shandon). […] Up to 300 cells were counted and differentiated using standard morphometric techniques under light microscopy.
All results are presented at individual data for each animal and mean value calculated for each group. Percentage inhibition for the neutrophil was calculated for compound no 43 treatment group against vehicle group. […]

[2] = molecular target: T1, purified recombinant human p38 alpha MAPK (Homo sapiens, UniProt Q16539); test: Inhibition of p38 alpha MAPK activity, TR-FRET kinase assay; assay type: biochemical; settings: Concentration 1 μM; read-out: P38α Inhibition
T1 construct: purchased Millipore, USA
T1 sequence (Q16539 whole entry): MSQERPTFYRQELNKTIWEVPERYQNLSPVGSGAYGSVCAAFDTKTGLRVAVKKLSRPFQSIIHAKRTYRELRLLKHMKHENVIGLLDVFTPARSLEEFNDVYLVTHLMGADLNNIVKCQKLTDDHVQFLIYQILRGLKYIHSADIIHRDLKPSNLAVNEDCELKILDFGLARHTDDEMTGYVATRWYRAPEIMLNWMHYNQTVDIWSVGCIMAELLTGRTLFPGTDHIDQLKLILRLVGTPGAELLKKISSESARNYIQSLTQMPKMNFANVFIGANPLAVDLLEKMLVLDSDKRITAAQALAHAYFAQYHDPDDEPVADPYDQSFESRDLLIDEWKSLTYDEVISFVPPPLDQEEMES
Outline: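 Recombinant human p38α preincubated 15 min at RT with compound (0.5–1.0% DMSO), then 30 nM biotinylated GST-ATF2 and 100 μM ATP added for 60 min at RT. Stopped with EDTA; Eu-anti-phospho-ATF2 and APC-streptavidin detection, 60 min. % inhibition from 665/615 nm TR-FRET ratio.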

[3] = system: cigarette smoke induced inflammatory cell accumulation in BAL Fluid; test: Acute guinea pig model of airway inflammation (tobacco smoke), BAL neutrophils; assay type: in vivo, Guinea pigs; settings: acute TS model, 6 mg/ml, aerosol exposure 75 minutes
Excerpt: Observation: It was observed that compound of present invention was found effective in inhibition of neutophil influx, an index of pulmonary inflammation. […] B. (I) Efficacy Studies in Acute Guinea Pig Model of Airway Inflammation
Guinea pigs were exposed to tobacco smoke (TS) in an acrylic chamber. Animals were exposed to TS from 5, 10, 15 cigarettes on day 1, day 2, day 3 respectively. From day 4 onwards till day 11, animals were exposed to TS from 15 cigarettes per day. […]
Lung delivery of test compound was achieved by whole body aerosol exposure for 75 minutes in a chamber. […] A total quantity of 7.0 ml of either vehicle or test compound formulation (suspension formulation with D90<5μ, with Malvern Mastersizer®) was nebulized in chambers to respective groups over 75 mins period. […]
as §1
as §2, with “microscopy. All results are presented at individual data for each animal and mean value calculated for each group. […]” for “microscopy.”

CCS(=O)(=O)Nc1cc(C(C)(C)C)cc(NC(=O)Nc2ccc(OCCN3CCN(CC4CC4)C(=O)C3)c3c2CCC3)c1OC [Compound 43, N-(5-tert-butyl-3-{[(7-{2-[4-(cyclopropylmethyl)-3-oxopiperazin-1-yl]ethoxy}-2,3-dihydro-1H-inden-4-yl)carbamoyl]amino}-2-methoxyphenyl)ethanesulfonamide]
Neutrophil (*10^6cells) ([1]; BALF, once daily week 9 to 18, Mean ± SEM): 4.0 ± 0.70 *10^6cells | lung function parameters (FRC, RV, IC/TLC ratio, RV/TLC ratio) ([1]; FIGS. 1A, 1B, 2A, 2B): significantly improves lung function aspects | % inhib^n ([1]; neutrophil vs vehicle group): 32% | inhibition at 1 µM [2]: 80 to 100% | Effect on inflammatory cell influx Neutrophil (*10^6cells) ([3]; BAL fluid, Mean ± SEM): 0.8 ± 0.20 *10^6cells | Effect on inflammatory cell influx % inhib^n ([3]; neutrophil vs vehicle group): 57%
